The source made the active and inactive calls. No cut-off for these calls is given here.

Data set [1] concerns the target T1, Nuclear factor erythroid 2-related factor 2 (Homo sapiens) (UniProt Q16236).
T1 sequence (whole entry): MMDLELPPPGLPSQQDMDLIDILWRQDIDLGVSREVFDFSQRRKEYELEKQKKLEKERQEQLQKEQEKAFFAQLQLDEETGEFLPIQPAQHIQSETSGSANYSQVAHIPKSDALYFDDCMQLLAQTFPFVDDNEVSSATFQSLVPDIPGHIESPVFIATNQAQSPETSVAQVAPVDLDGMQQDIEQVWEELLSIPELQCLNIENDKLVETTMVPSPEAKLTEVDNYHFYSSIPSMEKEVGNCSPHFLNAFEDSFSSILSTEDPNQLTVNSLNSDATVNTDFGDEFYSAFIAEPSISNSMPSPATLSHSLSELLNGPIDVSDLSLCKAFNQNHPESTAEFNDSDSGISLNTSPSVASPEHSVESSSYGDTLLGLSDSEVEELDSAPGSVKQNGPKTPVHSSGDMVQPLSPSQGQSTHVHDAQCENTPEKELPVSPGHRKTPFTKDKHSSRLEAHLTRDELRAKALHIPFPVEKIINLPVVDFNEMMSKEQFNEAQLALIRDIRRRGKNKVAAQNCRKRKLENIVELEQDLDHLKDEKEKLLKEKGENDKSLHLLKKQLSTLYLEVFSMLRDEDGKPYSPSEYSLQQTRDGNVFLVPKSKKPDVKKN
The experiment in a line: Activation of Nrf2 in human MDA-MB-231 cells assessed as upregulation of NQO1 protein expression after 16 hrs by immunoblot analysis. Format: cell-based.

Data set [2] has as its target T1, Nuclear factor erythroid 2-related factor 2 (Homo sapiens). Put plainly: Activation of Nrf2 in human BEAS2B cells assessed as upregulation of gamma-GCS protein expression at 0.31 to 20 uM after 18 hrs by immunoblot analysis. Format: cell-based. On the technique in general: Immunoblotting shows a protein as a band on a membrane.
Data set [3] concerns BEAS-2B. Put plainly: Effect on Keap1 protein levels in human BEAS2B cells at <= 20 uM after 18 hrs by immunoblot analysis. Format: functional, cell-based.
The test system of data set [4] is BEAS-2B. Put plainly: Downregulation of Keap1 protein levels in human BEAS2B cells at 50 to 100 uM after 18 hrs by immunoblot analysis. Format: functional, cell-based.
In data set [5] the target is T1, Nuclear factor erythroid 2-related factor 2 (Homo sapiens). Put plainly: Activation of Nrf2 in human BEAS2B cells assessed as upregulation of NQO1 protein expression at 6.25 uM after 8 to 24 hrs by immunoblot analysis. Format: cell-based.
Data set [6] shares this target. Put plainly: Activation of Nrf2 in human BEAS2B cells assessed as upregulation of Nrf2 protein expression at 6.25 uM after 48 hrs by immunoblot analysis. Format: cell-based.
Data set [7] shares this target. Put plainly: Activation of Nrf2 in human BEAS2B cells assessed as upregulation of NQO1 protein expression at 6.25 uM after 48 hrs by immunoblot analysis. Format: cell-based.
For data set [8], the system named is BEAS-2B. The experiment in a line: Effect on Keap1 protein levels in human BEAS2B cells at 6.25 uM after 4 to 48 hrs by immunoblot analysis. Format: functional, cell-based.
Data set [9] addresses T1, Nuclear factor erythroid 2-related factor 2 (Homo sapiens). The experiment in a line: Activation of Nrf2 in human BEAS2B cells assessed as upregulation of gamma-GCS protein expression at 3.12 to 25 uM after 12 hrs by immunoblot analysis. Format: cell-based.
In data set [10] the test system is BEAS-2B. The experiment in a line: Cytoprotective activity in human BEAS2B cells assessed as decrease in 5 to 20 uM As(+3)-induced cell death at 6.25 uM preincubated for 8 hrs followed by As(+3) challenge and measured after 24 hrs by MTT assay. Format: functional, cell-based. (Formazan colour is commonly taken as a measure of viable cells.)
The subject of data set [11] is BEAS-2B. Put plainly: Cytotoxicity against human BEAS2B cells assessed as decrease in cell viability at 6.25 after 24 hrs by MTT assay. Format: cell-based.
Data set [12] deals with BEAS-2B. Put plainly: Cytoprotective activity in human BEAS2B cells transfected with Nrf2-SiRNA assessed as decrease in As(+3)-induced cell death at 6.25 uM preincubated for 8 hrs followed by As(+3) challenge and measured after 24 hrs by MTT assay. Format: functional, cell-based.
Data set [13] has as its target T1, Nuclear factor erythroid 2-related factor 2 (Homo sapiens). The experiment in a line: Induction of Nrf2 translocation from cytoplasm to nucleus in human BEAS2B cells at 6.25 uM after 18 hrs by immunoblot analysis. Format: cell-based.
Data set [14] shares this target. Put plainly: Inhibition of Nrf2 (unknown origin) ubiquitylation transfected in human BEAS2B cells at 6.25 uM after 6 hrs by immunoblot analysis. Format: cell-based.
Data set [15] addresses T2, Nuclear factor erythroid 2-related factor 2 (Mus musculus) (UniProt Q60795).
T2 sequence (whole entry): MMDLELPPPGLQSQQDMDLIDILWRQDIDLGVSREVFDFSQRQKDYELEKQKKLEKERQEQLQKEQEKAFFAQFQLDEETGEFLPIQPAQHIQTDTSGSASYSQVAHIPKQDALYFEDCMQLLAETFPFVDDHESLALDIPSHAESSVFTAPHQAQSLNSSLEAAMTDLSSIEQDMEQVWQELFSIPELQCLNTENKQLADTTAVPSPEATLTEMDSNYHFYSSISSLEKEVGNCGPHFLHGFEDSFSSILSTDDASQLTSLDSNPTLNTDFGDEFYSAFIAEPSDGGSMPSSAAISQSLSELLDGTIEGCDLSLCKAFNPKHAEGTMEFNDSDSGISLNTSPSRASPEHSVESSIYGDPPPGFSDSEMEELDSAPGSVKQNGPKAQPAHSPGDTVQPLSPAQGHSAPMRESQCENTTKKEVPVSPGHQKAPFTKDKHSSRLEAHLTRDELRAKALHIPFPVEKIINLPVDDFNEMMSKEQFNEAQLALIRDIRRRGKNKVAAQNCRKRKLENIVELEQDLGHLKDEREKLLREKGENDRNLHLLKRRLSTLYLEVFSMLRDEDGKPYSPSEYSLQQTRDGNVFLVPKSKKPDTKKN
The experiment in a line: Activation of Nrf2 in mouse Heap1c1c7 cells assessed as induction of NAD(P)H:quinone reductase activity at 6.25 uM pretreated for 1 hr followed by co-treatment with PKC inhibitor Ro-31-8220 for 24 hrs. Format: cell-based.

Data set [16] addresses T2, Nuclear factor erythroid 2-related factor 2 (Mus musculus). Put plainly: Activation of Nrf2 in mouse Heap1c1c7 cells assessed as induction of NAD(P)H:quinone reductase activity at 6.25 uM pretreated for 1 hr followed by co-treatment with PERK inhibitor GSK2606414 for 24 hrs. Format: cell-based.
In data set [17] the target is T1, Nuclear factor erythroid 2-related factor 2 (Homo sapiens). The experiment in a line: Activation of Nrf2 in human BEAS2B cells assessed as upregulation of Nrf2 protein expression at 6.25 uM pretreated for 1 hr followed by co-treatment with p38 MAPK inhibitor SB203580 for 18 hrs by immunoblot analysis. Format: cell-based.
For data set [18] the target is unchanged. The experiment in a line: Activation of Nrf2 in human BEAS2B cells assessed as upregulation of Nrf2 protein expression at 6.25 uM pretreated for 1 hr followed by co-treatment with PKC inhibitor Go6983 for 18 hrs by immunoblot analysis. Format: cell-based.
Data set [19] shares this target. The experiment in a line: Activation of Nrf2 in human BEAS2B cells assessed as upregulation of NQO1 protein expression at 6.25 uM pretreated for 1 hr followed by co-treatment with PI3K inhibitor LY294002 for 18 hrs by immunoblot analysis. Format: cell-based.
The target is the same in data set [20]. The experiment in a line: Activation of Nrf2 in human BEAS2B cells assessed as upregulation of NQO1 protein expression at 6.25 uM pretreated for 1 hr followed by co-treatment with PERK inhibitor GSK2606414 for 18 hrs by immunoblot analysis. Format: cell-based.
Data set [21] has the same target. The experiment in a line: Activation of Nrf2 in human BEAS2B cells assessed as upregulation of GSH levels at 5 uM measured over 1 to 24 hrs. Format: cell-based.

For `COc1ccc(-c2coc3cc(OC)cc(O)c3c2=O)cc1` [4',7-DIMETHOXY-5-HYDROXYGENISTEIN], the Activity result in data set [1] is “Dose-dependent effect”; in [2] it was “Dose-dependent effect”; in the data set on BEAS-2B [11], “Non-Toxic”. Further, the result (with BEAS-2B [3]; in data set [6]; in data set [7]; with BEAS-2B [8]; in the data set on BEAS-2B [12]; in data set [15]) was inactive. Further, the result in data set [16], in [17], in data set [18], in data set [19] and in data set [20] was inactive. Further, the outcome (in the data set with BEAS-2B [4]; in [5]; in [9]; with BEAS-2B [10]; in data set [13]; in [21]) was Active. Also, the inhibition entry in [14] was “Active”.

These data come from ChEMBL document CHEMBL4229568, “Discovery of natural flavonoids as activators of Nrf2-mediated defense system: Structure-activity relationship and inhibition of intracellular oxidative insults” (Bioorg Med Chem, 2018).
